From patent US5665745A, “Heterocyclic compounds and their preparation and use” (Eli Lilly and Company, priority 1995, dated 1997)
Where two headings read alike, the source gives them in different places.

Experiments:
[1] = molecular target: T1, muscarinic receptors (M1 -site, pirenzepine sensitive site) (Rattus norvegicus, UniProt P08482); experiment: inhibition of ^3 HPRZ (pirenzepine, [N-methyl-^3 H]) binding to rat cerebral cortex membranes; set-up: species or system rat (male Wistar
T1 construct: from tissue; host or cells: cerebral cortex membranes of male Wistar rats
T1 sequence (P08482 1-460): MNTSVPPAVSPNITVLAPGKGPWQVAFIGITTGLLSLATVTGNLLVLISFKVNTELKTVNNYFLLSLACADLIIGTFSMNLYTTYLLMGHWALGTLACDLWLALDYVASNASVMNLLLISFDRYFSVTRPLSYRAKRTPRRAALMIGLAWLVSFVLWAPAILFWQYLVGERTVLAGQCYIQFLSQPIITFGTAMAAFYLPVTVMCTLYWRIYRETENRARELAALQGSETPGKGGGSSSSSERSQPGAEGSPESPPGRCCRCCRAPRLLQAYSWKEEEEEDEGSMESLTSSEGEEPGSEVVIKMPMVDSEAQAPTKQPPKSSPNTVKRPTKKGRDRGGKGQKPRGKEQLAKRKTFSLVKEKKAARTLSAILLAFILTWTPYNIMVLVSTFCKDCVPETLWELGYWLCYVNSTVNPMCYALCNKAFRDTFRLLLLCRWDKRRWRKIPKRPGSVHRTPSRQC
Method in brief: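 Male Wistar rat cortex membranes in 20 mM Hepes pH 7.4 were incubated with 1.0 nM (final) [3H]pirenzepine for 60 min at 20° C; nonspecific binding was defined with 1 μg/mL atropine. Filtration and scintillation counting were used, and IC50 was calculated from a single concentration assuming mass-action kinetics.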

[2] = molecular target: muscarinic acetylcholine receptors; experiment: inhibition of specific binding of ^3 H-Oxotremorine-M (^3 H-Oxo); set-up: species or system rat (male Wistar; details: ^3 H-Oxotremorine 1.0 nM, rat cortex, 30 min. at 25° C.
Method in brief: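 Rat cortex membranes (male Wistar) in 20 mM Hepes pH 7.4 incubated with 1.0 nM ^3H-Oxotremorine-M (final) and test compound for 30 min at 25 °C; arecoline defines non-specific binding. Bound radioactivity by filtration and scintillation counting; IC50 (nM) from a single concentration via Co/Cx mass-action formula, reflecting high- and medium-affinity sites.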

[3] = ^3 HPRZ 1.0 nM, rat cortex, 60 min. at 20° C., read-out: ^3 HPRZ IC50 (head from b208 on: Pir IC-50)

IC50 [1, 3]	SMILES	IC50 [1]	IC50 [2]
–	C#CCCOc1nsnc1OC1CN2CCC1CC2 (racemic) [Compound 113, (±)-3-(3-butynoxy)-4-(1-azabicyclo[2.2.2]octyl-3-oxy)-1,2,5-thiadiazole]	23 nM	3.6 nM
–	c1nsnc1OCCOc1nsnc1OC1CN2CCC1CC2 (racemic) [Compound 132, (±)-3-(2-[3-{1,2,5-Thiadiazoyloxy}]ethoxy)-4-(1-azabicyclo[2.2.2]octyl-3-oxy)-1,2,5-thiadiazole]	66 nM	11 nM
21 nM	CCCCc1ccc(COc2nsnc2O[C@@H]2CN3CCC[C@H]2C3)cc1 (relative stereo) [Compound 192, (±)-endo-3-(4-n-Butylbenzyloxy)-4-(1-azabicyclo[3.2.1]octyl-6-oxy)-1,2,5-thiadiazole]	–	13 nM
–	c1ccc(CCCSc2nsnc2OC2CN3CCC2CC3)cc1 (racemic) [Compound 40, (±)-3-(3-Phenylpropylthio)-4-(1-azabicyclo[2.2.2]octyl-3-oxy)-1,2,5-thiadiazole]	2.5 nM	1.8 nM
–	c1csc(SCCSc2nsnc2OC2CN3CCC2CC3)c1 (racemic) [Compound 19, (±)-3-(2-(2-Thienylthio)ethylthio)-4-(1-azabicyclo-[2.2.2]octyl-3-oxy)-1,2,5-thiadiazole]	7.5 nM	0.36 nM
120 nM	CC(C)(C)c1ccc(COc2nsnc2O[C@@H]2CN3CCC[C@H]2C3)cc1 (relative stereo) [Compound 198, (±)-endo-3-(4-tert-Butylbenzyloxy)-4-(1-azabicyclo[3.2.1]octyl-6-oxy)-1,2,5-thiadiazole]	–	31 nM
–	C=CCCCOc1nsnc1OC1CN2CCC1CC2 (racemic) [Compound 122, (±)-3-(4-pentenyloxy)-4-(1-azabicyclo[2.2.2]octyl-3-oxy)-1,2,5-thiadiazole]	45 nM	11 nM
43 nM	FC(F)(F)c1cccc(CCOc2nsnc2O[C@@H]2CN3CCC[C@H]2C3)c1 (relative stereo) [Compound 188, (±)-endo-3-[2-(3-Trifluoromethylphenyl)ethoxy]-4-(1-azabicyclo[3.2.1]octyl-6-oxy)-1,2,5-thiadiazole]	–	12 nM
6.4 nM	CC#CCOc1nsnc1O[C@@H]1CN2CCC[C@H]1C2 (relative stereo) [Compound 168]	–	1 nM
–	c1ccc(CCSc2nsnc2OC2CN3CCC2CC3)cc1 (racemic) [Compound 43, (±)-3-(2-Phenylethylthio)-4-(1-azabicyclo[2.2.2]octyl-3-oxy)-1,2,5-thiadiazole]	33 nM	29 nM
–	c1csc(Sc2nsnc2OC2CN3CCC2CC3)c1 (racemic) [Compound 60, (±)-3-(2-Thienyl)thio)-4-(1-azabicyclo[2.2.2]octyl-3-oxy)-1,2,5-thiadiazole]	14 nM	19 nM
–	C/C=C\COc1nsnc1OC1CN2CCC1CC2 (mixture of isomers) [Compound 110, (±)-3-(cis-2-butenyloxy)-4-(1-azabicyclo[2.2.2]octyl-3-oxy)-1,2,5-thiadiazole]	50.4 nM	13.2 nM
–	Fc1ccc(CSc2nsnc2OC2CN3CCC2CC3)cc1 (racemic) [Compound 42, (±)-3-(4-Fluorobenzylthio)-4-(1-azabicyclo[2.2.2]octyl-3-oxy)-1,2,5-thiadiazole]	9.3 nM	14 nM
12 nM	C1CCC(CCOc2nsnc2O[C@@H]2CN3CCC[C@H]2C3)CC1 (relative stereo) [Compound 200, (±)-endo-3-(2-Cyclohexylethoxy)-4-(1-azabicyclo[3.2.1]octyl-6-oxy)-1,2,5-thiadiazole]	–	16 nM
–	CCCOc1nsnc1OC1CN2CCC1CC2 (racemic) [Compound 7, (±)-3-propyloxy-4-(1-azabicyclo[2.2.2]octyl-3-oxy)-1,2,5-thiadiazole]	26 nM	10.7 nM
–	CCCCSc1nsnc1O[C@@H]1CN2CC[C@@H]1C2 (relative stereo) [Compound 131, (±)exo-3-Butylthio-4-(1-azabicyclo[2.2.1]heptyl-3-oxy)-1,2,5-thiadiazole]	46 nM	5.6 nM
–	O=C1SCCN1CCCSc1nsnc1OC1CN2CCC1CC2 (racemic) [Compound 61, (±)-3-(3-N-(2-Thiazolidonyl)propylthio)-4-(1-azabicyclo[2.2.2]octyl-3-oxy)1,2,5-thiadiazole]	5.8 nM	1.1 nM
2 nM	ClCCCOc1nsnc1O[C@@H]1CN2CCC[C@H]1C2 (relative stereo) [Compound 177, (±)-endo-3-(3-Chloropropoxy)-4-(1-azabicyclo[3.2.1]octyl-6-oxy)-1,2,5-thiadiazole]	–	1.1 nM
16.6 nM	Fc1ccc(OCCSc2nsnc2OC2CC3CCC2NC3)cc1 (mixture of isomers) [Compound 164, (±)-exo-3-(2-[Fluorophenoxy]ethylthio)-4-(2-azabicyclo[2.2.2]octyl-6-oxy)-1,2,5-thiadiazole]	–	5.28 nM
–	CCCCCSc1nsnc1O[C@@H]1CN2CCC1CC2 [Compound 16, (S)-3-Pentylthio-4-(1-azabicyclo[2.2.2]octyl-3-oxy)-1,2,5-thiadiazole]	2 nM	6.4 nM
10 nM	CSc1ccc(COc2nsnc2O[C@@H]2CN3CCC[C@H]2C3)cc1 (relative stereo) [Compound 172, (±)-endo-3-(4-Methylthiobenzyloxy)-4-(1-azabicyclo[3.2.1]octyl-6-oxy)-1,2,5-thiadiazole]	–	5.2 nM
–	Clc1nsnc1O[C@H]1CN2CCC[C@@H]1C2 (relative stereo) [Compound 48, (±)-endo-3-Chloro-4-(1-azabicyclo [3.2.1]octyl-6-oxy)-1,2,5-thiadiazole]	27 nM	14 nM
–	ClCCCOc1nsnc1OC1CN2CCC1CC2 (racemic) [Compound 116, (±)-3-(3-Chloropropoxy)-4-(1-azabicyclo[2.2.2]octyl-3-oxy)-1,2,5-thiadiazole]	33 nM	14 nM
–	Clc1nsnc1OC1CN2CCC1CC2 (racemic) [Compound 12, (±)-3-Chloro-4-(1-azabicyclo[2.2.2]octyl-3-oxy)-1,2,5-thiadiazole]	86 nM	73 nM
0.47 nM	CCCCSc1nsnc1O[C@H]1CN2CCC[C@@H]1C2 [Compound 138, (5R,6R)-endo-3-Butylthio-4-(1-azabicyclo[3.2.1]octyl-6-oxy)-1,2,5-thiadiazole]	–	0.65 nM

SMILES	IC50 [1, 3]	IC50 [1]	IC50 [2]
Fc1ccc(OC(CCSc2nsnc2OC2CN3CCC2CC3)c2ccc(F)cc2)cc1 (racemic) [Compound 152, (±)-3-(3-[4-fluorophenyl]-3-[4-fluorophenoxy]propylthio)-4-(1-azabicyclo[2.2.2]octyl-3-oxy)-1,2,5-thiadiazole]	243 nM	–	436 nM
FCCCOc1nsnc1OC1CN2CCC1CC2 (racemic) [Compound 123, (±)-3-(3-Fluoropropyloxy)-4-(1-azabicyclo[2.2.2]octyl-3-oxy)-1,2,5-thiadiazole]	106 nM	–	42 nM
CC(C)(CCOc1nsnc1O[C@@H]1CN2CCC[C@H]1C2)c1ccccc1 (relative stereo) [Compound 204, (±)-endo-3-(3-Methyl-3-phenylbutoxy)-4-(1-azabicyclo[3.2.1]octyl-6-oxy)-1,2,5-thiadiazole]	153 nM	–	59 nM
